How the values were obtained:
human P2X3 receptor = target: T1, human P2X3 receptor (Homo sapiens, UniProt P56373); assay: Inhibition of ATP-induced calcium fluorescence (Fluo-3, FDSS 3000) in C6BU-1 cells stably expressing human P2X3 receptor; format: cell-based; conditions: C6BU-1 cell transfected with human P2X3 receptor gene; 40 nM ATP solution; Fluo-3 fluorescence intensity
T1 construct: expressed in transfected cells
T1 sequence (P56373 1-397): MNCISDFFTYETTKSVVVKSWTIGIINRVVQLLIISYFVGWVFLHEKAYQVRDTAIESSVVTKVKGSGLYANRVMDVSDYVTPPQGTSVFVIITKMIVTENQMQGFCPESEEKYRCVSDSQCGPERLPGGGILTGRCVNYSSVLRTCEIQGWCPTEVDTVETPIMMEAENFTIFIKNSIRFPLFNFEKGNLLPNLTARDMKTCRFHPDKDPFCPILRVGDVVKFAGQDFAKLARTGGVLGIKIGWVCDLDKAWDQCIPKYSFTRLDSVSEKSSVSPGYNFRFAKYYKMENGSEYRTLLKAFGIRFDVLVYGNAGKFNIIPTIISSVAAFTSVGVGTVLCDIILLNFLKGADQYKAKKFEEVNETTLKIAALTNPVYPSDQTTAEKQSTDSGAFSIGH
Description: Stably expressing cell line (C6BU-1 cell transfected with human P2X3 receptor gene (GenBank accession number Y07683)) was used. The cells were seeded in a 96-well microtiter plate at a concentration of 8000 cells/well and cultured in the medium (8.3% fetal bovine serum, 8.3% horse serum, 1% antibiotic and antifungal in DMEM) for one day at 37° C. under 5% carbon dioxide atmosphere. The medium was replaced with 4 μM Fluo-3-AM solution (pH7.5) containing 20 mM HEPES, 137 mM NaCl, 2.7 mM KCl, 0.9 mM MgCl2, 5.0 mM CaCl2, 5.6 mM D-glucose, 2.5 mM probenecid, 10% BSA, and 0.08% Pluronic F-127, and incubated at 37° C. under 5% dioxide carbon atmosphere for one hour. The plate was washed with washing buffer (20 mM HEPES, 137 mM NaCl, 2.7 mM KCl, 0.9 mM MgCl2, 5.0 mM CaCl2, 5.6 mM D-glucose, 2.5 mM probenecid, pH7.5), and each well was added with 40 μL of this buffer. The plate was placed in High-Throughput Screening System FDSS 3000 (Hamamatsu Photonics K.K.). Measurement of fluorescence intensity by FDSS 3000 was started, and 40 μL of DMSO solutions containing different concentrations of the test compound as prepared by dilution with dilution buffer (20 mM HEPES, 137 mM NaCl, 2.7 mM KCl, 0.9 mM MgCl2, 5.0 mM CaCl2, 5.6 mM D-glucose, 2.5 mM probenecid, 0.1% Pluronic F-127, pH7.5) were dispensed to each well through the built-in automatic dispenser. Five minutes after, 40 nM ATP solution (50 μL) prepared by dilution with the dilution buffer was dispensed through the built-in automatic dispenser, and the measurement of fluorescence intensity was continued for 3 min. For each well, the specific maximum fluorescence intensity was calculated as the ratio of the maximum fluorescence intensity after addition of the ATP solution to the fluorescence intensity at the starting of the measurement. […] FDSS software (Hamamatsu Photonics K.K.) was used for calculation of the specific maximum fluorescence intensity. IC50 was calculated using Microsoft™ Excel™ (Microsoft Corporation) and XLfit™ (ID Business Solutions Ltd.).

COc1ccc(C(=O)C2=C(O)C(=O)N(c3ccc(SC(F)(F)F)cc3)C2c2ccc(F)cc2)cc1 (centres unmarked) [Example I-45]
IC50 (human P2X3 receptor): 580 nM | melting point: 225 to 228 °C (dec.)

Reference: patent US8497263B2, “Pyrrolinone derivative and pharmaceutical composition comprising the same” (Shionogi & Co., Ltd., priority 2007, dated 2013)
